Data as given in PubChem BioAssay (NCI).
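Test compounds were applied to cells in 96-well plates for 48 hours at 5 doses. GI50 marks 50% less growth. TGI marks complete inhibition of growth.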

Columns and labels:
Test in all cases: growth of human tumour cells (NCI), 48 h
ACHN renal = system: ACHN renal
KM12 colon = system: KM12 colon
MOLT-4 leukemia = system: MOLT-4 leukemia
RPMI-8226 leukemia = system: RPMI-8226 leukemia
RXF 393 renal = system: RXF 393 renal
SF-295 CNS = system: SF-295 CNS
SK-MEL-28 melanoma = system: SK-MEL-28 melanoma
SNB-19 CNS = system: SNB-19 CNS
SNB-75 CNS = system: SNB-75 CNS
T-47D breast = system: T-47D breast

## CC(=O)Oc1ccc2ccc(=O)oc2c1OC(C)=O
ACHN renal
  TGI: > 100 µM
KM12 colon
  TGI: > 100 µM
MOLT-4 leukemia
  TGI: > 100 µM
RPMI-8226 leukemia
  TGI: > 100 µM
RXF 393 renal
  TGI: 71.4 µM
SF-295 CNS
  TGI: > 100 µM
SK-MEL-28 melanoma
  TGI: > 100 µM
SNB-19 CNS
  TGI: > 100 µM
SNB-75 CNS
  TGI: > 100 µM
T-47D breast
  TGI: > 100 µM

## CN(CCCCCl)P(=O)(OCc1ccc([N+](=O)[O-])o1)C(F)(F)c1ccc(CC(=O)N[C@@H](CC(=O)O)C(=O)N[C@@H](Cc2ccc(C(F)(F)P(=O)(OCc3ccc([N+](=O)[O-])o3)N(C)CCCCCl)cc2)C(N)=O)cc1 (stereo not given in full)
ACHN renal
  GI50: > 100 µM
  TGI: > 100 µM
KM12 colon
  GI50: 43 µM
  TGI: > 100 µM
MOLT-4 leukemia
  GI50: 31.4 µM
  TGI: 91.2 µM
RPMI-8226 leukemia
  GI50: 25.5 µM
  TGI: 71.9 µM
RXF 393 renal
  GI50: > 100 µM
  TGI: > 100 µM
SF-295 CNS
  GI50: > 100 µM
  TGI: > 100 µM
SK-MEL-28 melanoma
  GI50: 42.4 µM
  TGI: > 100 µM
SNB-19 CNS
  GI50: 54.9 µM
  TGI: > 100 µM
SNB-75 CNS
  GI50: 34.5 µM
  TGI: 91.9 µM
T-47D breast
  GI50: 39.1 µM
  TGI: > 100 µM

## Nc1ccccc1/C=N\Nc1ccccc1
ACHN renal
  GI50: 3.01 µM
  TGI: > 100 µM
KM12 colon
  GI50: 0.602 µM
  TGI: > 100 µM
MOLT-4 leukemia
  GI50: 26.3 µM
  TGI: > 100 µM
RPMI-8226 leukemia
  GI50: > 100 µM
  TGI: > 100 µM
RXF 393 renal
  GI50: > 100 µM
  TGI: > 100 µM
SF-295 CNS
  GI50: 1.63 µM
  TGI: > 100 µM
SK-MEL-28 melanoma
  GI50: > 100 µM
  TGI: > 100 µM
SNB-19 CNS
  GI50: > 100 µM
  TGI: > 100 µM
SNB-75 CNS
  GI50: > 100 µM
  TGI: > 100 µM
T-47D breast
  GI50: 5.04 µM
  TGI: > 100 µM

## O=C(CCc1nnc(-c2c(Cl)cccc2Cl)o1)c1nc2ccccc2[nH]1
ACHN renal
  GI50: 11.9 µM
  TGI: > 100 µM
KM12 colon
  GI50: 3.16 µM
  TGI: 11 µM
MOLT-4 leukemia
  GI50: 4.07 µM
  TGI: 25.8 µM
RPMI-8226 leukemia
  GI50: 3.61 µM
  TGI: 23.3 µM
RXF 393 renal
  GI50: 4.3 µM
  TGI: 49.7 µM
SF-295 CNS
  GI50: 5.98 µM
  TGI: 42.9 µM
SK-MEL-28 melanoma
  GI50: 12.7 µM
  TGI: 42.7 µM
SNB-19 CNS
  GI50: 17.4 µM
  TGI: > 100 µM
SNB-75 CNS
  GI50: 18.7 µM
  TGI: > 100 µM
T-47D breast
  GI50: 3.34 µM
  TGI: 60 µM

## CC1(C)CC(=O)C(C(c2cccc(O)c2O)C2C(=O)CC(C)(C)CC2=O)C(=O)C1
ACHN renal
  TGI: > 100 µM
KM12 colon
  TGI: > 100 µM
MOLT-4 leukemia
  TGI: > 100 µM
RPMI-8226 leukemia
  TGI: > 100 µM
RXF 393 renal
  TGI: > 100 µM
SF-295 CNS
  TGI: > 100 µM
SK-MEL-28 melanoma
  TGI: > 100 µM
SNB-19 CNS
  TGI: > 100 µM
SNB-75 CNS
  TGI: > 100 µM
T-47D breast
  TGI: > 100 µM

## C[N+](C)(C)CCC(=O)N1C/C(=C\c2ccccc2)C(=O)/C(=C/c2ccccc2)C1
ACHN renal
  TGI: 15.3 µM
KM12 colon
  TGI: 3.11 µM
MOLT-4 leukemia
  TGI: 7.31 µM
RPMI-8226 leukemia
  TGI: 2.3 µM
RXF 393 renal
  TGI: 28.3 µM
SF-295 CNS
  TGI: 11.9 µM
SK-MEL-28 melanoma
  TGI: 15.4 µM
SNB-19 CNS
  TGI: 12.2 µM
SNB-75 CNS
  TGI: 24.3 µM
T-47D breast
  TGI: 4.41 µM

## C/C(=N\Nc1ccc2ccccc2n1)c1ccccc1O
ACHN renal
  TGI: > 100 µM
KM12 colon
  TGI: > 100 µM
MOLT-4 leukemia
  TGI: > 58.5 µM
RPMI-8226 leukemia
  TGI: > 100 µM
RXF 393 renal
  TGI: > 100 µM
SF-295 CNS
  TGI: 37.2 µM
SK-MEL-28 melanoma
  TGI: > 100 µM
SNB-19 CNS
  TGI: > 100 µM
SNB-75 CNS
  TGI: 24.7 µM
T-47D breast
  TGI: > 100 µM

## Cc1ccc(Cl)cc1Nc1nc(C(F)(F)F)ccc1C(=O)N/N=C/c1c(Cl)cccc1Cl
ACHN renal
  GI50: 1.08 µM
  TGI: 6.14 µM
KM12 colon
  GI50: 0.542 µM
  TGI: 9.08 µM
MOLT-4 leukemia
  GI50: 0.596 µM
  TGI: 4.93 µM
RPMI-8226 leukemia
  GI50: 0.32 µM
  TGI: 1.79 µM
RXF 393 renal
  GI50: 1.23 µM
  TGI: 3.48 µM
SF-295 CNS
  GI50: 0.556 µM
  TGI: 3.61 µM
SK-MEL-28 melanoma
  GI50: 1.84 µM
  TGI: 32.1 µM
SNB-19 CNS
  GI50: 1.75 µM
  TGI: > 52.2 µM
SNB-75 CNS
  GI50: 1.45 µM
  TGI: > 24.2 µM
T-47D breast
  GI50: 0.517 µM
  TGI: 5.18 µM

## COC(=O)NNc1c([N+](=O)[O-])cnn(-c2ccccc2)c1=O
ACHN renal
  TGI: 10.2 µM
KM12 colon
  TGI: 16.9 µM
MOLT-4 leukemia
  TGI: 2.61 µM
RPMI-8226 leukemia
  TGI: 19.2 µM
RXF 393 renal
  TGI: 10.1 µM
SF-295 CNS
  TGI: 8.37 µM
SK-MEL-28 melanoma
  TGI: 7.05 µM
SNB-19 CNS
  TGI: 23.2 µM
SNB-75 CNS
  TGI: 19.5 µM
T-47D breast
  TGI: 4.54 µM

## O=C(CCCCCCC(=O)N/N=C/c1ccc(N(c2ccccc2)c2ccccc2)cc1)NO
ACHN renal
  GI50: 2.28 µM
  TGI: 7.39 µM
KM12 colon
  GI50: 2.72 µM
  TGI: 13.1 µM
MOLT-4 leukemia
  GI50: 1.88 µM
  TGI: 10.3 µM
RPMI-8226 leukemia
  GI50: 1.88 µM
  TGI: 14 µM
RXF 393 renal
  GI50: 2.27 µM
  TGI: 7.06 µM
SF-295 CNS
  GI50: 1.77 µM
  TGI: 4.47 µM
SK-MEL-28 melanoma
  GI50: 3.06 µM
  TGI: 11.6 µM
SNB-19 CNS
  GI50: 3.35 µM
  TGI: 15.9 µM
SNB-75 CNS
  GI50: 2.04 µM
  TGI: 14.2 µM
T-47D breast
  GI50: 0.309 µM
  TGI: 2.41 µM

## CCCN(CCC)c1ccc(C=O)cc1
ACHN renal
  GI50: 77.7 µM
  TGI: > 100 µM
KM12 colon
  GI50: > 70.8 µM
  TGI: > 100 µM
MOLT-4 leukemia
  GI50: 29.8 µM
  TGI: > 100 µM
RPMI-8226 leukemia
  GI50: 54.5 µM
  TGI: > 100 µM
RXF 393 renal
  GI50: 72.2 µM
  TGI: > 100 µM
SF-295 CNS
  GI50: 34.2 µM
  TGI: > 100 µM
SK-MEL-28 melanoma
  GI50: > 100 µM
  TGI: > 100 µM
SNB-19 CNS
  GI50: 62 µM
  TGI: > 100 µM
SNB-75 CNS
  GI50: 18.4 µM
  TGI: > 100 µM
T-47D breast
  GI50: 21.1 µM
  TGI: > 100 µM

## CCOc1cc(C=O)c2c(ccc3ccc(OC)c(OC)c32)c1OC
ACHN renal
  TGI: > 100 µM
KM12 colon
  TGI: > 100 µM
MOLT-4 leukemia
  TGI: > 100 µM
RPMI-8226 leukemia
  TGI: > 100 µM
RXF 393 renal
  TGI: > 100 µM
SF-295 CNS
  TGI: > 100 µM
SK-MEL-28 melanoma
  TGI: > 100 µM
SNB-19 CNS
  TGI: > 100 µM
SNB-75 CNS
  TGI: > 100 µM
T-47D breast
  TGI: > 100 µM

## CCOC(=O)c1c[nH]c2c(OCc3ccccc3)c3ccccc3c(O)c2c1=O
ACHN renal
  GI50: 4.97 µM
  TGI: 33.4 µM
KM12 colon
  GI50: 6.89 µM
  TGI: > 84.5 µM
MOLT-4 leukemia
  GI50: 6.24 µM
  TGI: > 100 µM
RPMI-8226 leukemia
  GI50: 26.9 µM
  TGI: > 100 µM
RXF 393 renal
  GI50: 22.6 µM
  TGI: 55.7 µM
SF-295 CNS
  GI50: 2.09 µM
  TGI: 15.5 µM
SK-MEL-28 melanoma
  GI50: 25.8 µM
  TGI: > 100 µM
SNB-19 CNS
  GI50: 16.7 µM
  TGI: 97.1 µM
SNB-75 CNS
  GI50: 11.6 µM
  TGI: > 54.4 µM
T-47D breast
  GI50: 18.5 µM
  TGI: 69.6 µM

## Nc1ncnc2c1c(-c1cccc(OCc3ccccc3)c1)cn2C1CC(CN2CCCC2)C1 (stereo not given)
ACHN renal
  GI50: 2.93 µM
  TGI: 11 µM
KM12 colon
  GI50: 1.93 µM
  TGI: 4.26 µM
MOLT-4 leukemia
  GI50: 2.7 µM
  TGI: 8.57 µM
RPMI-8226 leukemia
  GI50: 1.94 µM
  TGI: 5.4 µM
RXF 393 renal
  GI50: 1.21 µM
  TGI: 2.68 µM
SF-295 CNS
  GI50: 1.9 µM
  TGI: 3.87 µM
SK-MEL-28 melanoma
  GI50: 1.4 µM
  TGI: 2.8 µM
SNB-19 CNS
  GI50: 4.19 µM
  TGI: 16.9 µM
SNB-75 CNS
  GI50: 1.24 µM
  TGI: 3.19 µM
T-47D breast
  GI50: 2.04 µM
  TGI: 6.59 µM

## O=C1Nc2ccccc2C1(c1ccc(O)c(F)c1)c1ccc(O)c(F)c1
ACHN renal
  GI50: 3.07 µM
  TGI: > 84 µM
KM12 colon
  GI50: 3.07 µM
  TGI: 22.9 µM
MOLT-4 leukemia
  GI50: 10.6 µM
  TGI: 67 µM
RPMI-8226 leukemia
  GI50: 15.7 µM
  TGI: 52.6 µM
RXF 393 renal
  GI50: 0.969 µM
  TGI: 10.5 µM
SF-295 CNS
  GI50: 12.5 µM
  TGI: 28.5 µM
SK-MEL-28 melanoma
  GI50: 14.4 µM
  TGI: 52 µM
SNB-19 CNS
  GI50: 19.1 µM
  TGI: 69 µM
SNB-75 CNS
  GI50: 0.661 µM
  TGI: 36.5 µM
T-47D breast
  GI50: 0.226 µM
  TGI: 0.622 µM
